Columns and labels:
Type in all cases: cell-based, human
[1] = test system: minor spliceosome (MiS); experiment: Luciferase minor intron splicing reporter assay
Experimental: (§1) CMV-luc2CP/ARE (major intron splicing reporter), CMV-luc2CP (empty vector backbone control) and luc1CFH4 (minor splicing intron reporter) were a kind gift from Dr. Gideon Dreyfuss (University of Pennsylvania). DNA was amplified via chemical transformation of One Shot Mach1 T1 Phage-Resistant Chemically Competent E. coli cells (Invitrogen, C862003) and Sanger sequenced.
(§2) 24 hours prior analysis cells of each condition were co-transfected with each reporter plasmid and the empty vector backbone plasmid. In short 1.5 ul of P3000 reagent plus 0.5 ug of DNA and 1.5 ul Lipofectamine P300 were each diluted in 25 ul Opti-MEMH medium. Both mixes were pooled and incubated for 20 minutes before the solution was added to the cells. Luciferase expression was measured with the Dual-Glo® Luciferase Assay System (Promega, E2940): media was removed, 100 ul of PLB were added and cells were frozen for two hours at −20 C. After a one hour shaking step 100 ul of LAR substrate was added and Firefly luciferase expression was measured with a Tecan Infinite M200PRO reader. Values were calculated as x-fold of CMV-luc2CP expression and subsequently as the x-fold of the respective reference control.

[2] = test system: major spliceosome; experiment: Luciferase major intron splicing reporter assay; conditions: LNCaP and C4-2 cells, long term ADT/ARSi
Experimental: as §1
as §2, with “To determine the minor/major intron splicing rate cells were seeded in white 96 well plate (Huberlab, 7.655 098) (8000/well) and treated according to assay conditions. 24” for “24”

[3] = test system: C4-2 cells and enzalutamide-resistant LNCaP (L-rENZ) cells; experiment: Growth curves with siRNA +/- enzalutamide; conditions: CRPC C4-2 and L-rENZ cells; compared with EZH2 plus enzalutamide
Experimental: For growth experiments cells were treated with siRNA and two hours later with 20 uM enzalutamide. Enzalutamide was refreshed 3 days later.
Cells were seeded in a 6 well (400 000) and treated according to assay conditions over night. Cells were then seeded in Poly-L-Lysine coated 96-well plates (8000 cells/well, n=3 per condition) and WCM154 cells were seeded in a collagen-coated 96-well plates (5000 cells/well, n=3 per condition). Remaining cells were used for U6atac KD control via qRT-PCR. Cell viability was determined after 24, 48, 72, and 96 h with a Tecan Infinite M200PRO reader using the CellTiter-Glo® Luminescent Cell Viability Assay according to manufacturer's directions (Promega, G9243). Viability values were calculated as x-fold of cells transfected with siRNA for 0 h. Cell confluence (n=4 per condition) was determined using the Incucyte S3 instrument and the IncuCyte S3 2018B software (Essen Bioscience, Germany). Values were calculated as x-fold of timepoint 0 and then as fold-change in confluency as compared to siScrambled treated controls.

COc1ccc(C[C@H]2NC[C@H](O)[C@H]2OC(C)=O)cc1 [anisomycin]
effect on minor intron splicing (luc-splicing reporter) ([1]; LNCaP, C4-2, H660 cells and MSK8, MSK10, MSK16, PM154, PM1262 organoids, p38MAPK activation): only observed in PCa-NE cells and organoids (H660, PM154 and MSK10)

C[C@]12CCC(=O)C[C@@H]1CC[C@@H]1[C@@H]2CC[C@]2(C)[C@@H](O)CC[C@@H]12 [dihydrotestosterone]
MiS activity (luciferase reporter) [1]: rescued MiS activity to levels observed in L-AR alone

CNC(=O)c1ccc(N2C(=S)N(c3ccc(C#N)c(C(F)(F)F)c3)C(=O)C2(C)C)cc1F [enzalutamide]
MiS activity (minor splicing luc-reporter) ([1]; LNCaP and C4-2 cells, long term ADT/ARSi): significant increase in MiS activity | major splicing (luc-reporter) [2]: only limited effects | cell growth / proliferation [3]: increased CRPC growth in resistant cells
